{"source": "patent US8470548B2", "about": "“Diagnosis of depression” (Intra-Cellular Therapies, Inc., priority 2006, dated 2013)", "key": {"[1]": {"molecular_target": "T1, 5-HT1B receptor (Mus musculus, UniProt P28334)", "T1 sequence (P28334 whole entry)": "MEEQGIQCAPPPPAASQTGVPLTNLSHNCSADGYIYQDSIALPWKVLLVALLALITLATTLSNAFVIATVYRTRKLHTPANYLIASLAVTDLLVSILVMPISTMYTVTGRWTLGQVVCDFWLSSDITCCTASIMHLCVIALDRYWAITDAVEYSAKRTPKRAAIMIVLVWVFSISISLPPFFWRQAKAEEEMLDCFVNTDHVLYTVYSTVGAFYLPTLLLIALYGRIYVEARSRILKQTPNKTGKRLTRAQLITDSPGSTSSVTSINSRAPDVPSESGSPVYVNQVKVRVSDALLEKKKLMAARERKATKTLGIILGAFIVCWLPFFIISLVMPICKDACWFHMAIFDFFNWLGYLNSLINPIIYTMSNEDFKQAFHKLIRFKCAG", "test": "Quantitative receptor autoradiography, [125I]cyanopindolol binding and serotonin displacement", "parameters": "Cryostat sections (12 μm thick) are made from p11 KO and wild-type mice; from tissue; host or cells: mouse brain cryostat sections (globus pallidus, substantia nigra); wild-type, p11 KO and p11 transgenic mice; species or system mice", "protocol": "Cryostat sections (12 μm thick) are made from p11 KO and wild-type mice. 5-HT1B receptors are detected by incubating the sections in 170 mM Tris/150 mM NaCl pH 7.4 (25° C.) containing the antagonist [^125I]cyanopindolol (0.3, 1, 3, 10, 30, 100 pM; 2200 Ci/mmol), 100 nM 8-OH-DPAT as a 5-HT1A blocker, and 30 μM isoproterenol, as β-adrenergic receptor blocker, for two hours (S9). Non-specific binding is determined by measurements in the presence of 100 μM serotonin. In displacement experiments, increasing concentrations of serotonin (0, 0.3, 1, 3, 10, 30, 100, 300, 1000, 10000 nM) are incubated with 10 pM [^125I]cyanopindolol as described above. […] At the end of all autoradiographic experiments, sections are rinsed 2×5 min in their corresponding cold binding buffers, dipped in distilled water at 4° C. and dried under cold air. The sections are apposed to Biomax MR films for 3-5 days ([^125I]cyanopindolol) or 4-10 weeks ([^3H]GR125743, [^3H]8-OHDPAT, ^3H]SCH23390, [^3H]raclopride) together with ^[125I] or [^3H] microscales. Optical density measurements are obtained in several brain regions with the NIH Image 1.63 image analysis system. Specific binding is calculated by digital subtraction of nonspecific labeling from total binding. Standard curves generated from [^3H] or [^125I] microscales are used to convert optical densities into femtomoles per milligram of protein. Data obtained from saturation and displacement experiments are analyzed using non-linear regression equations."}, "[2]": {"system": "p11", "test": "p11 expression in PBMC of monkeys receiving fluoxetine", "assay_type": "in vivo"}, "[3]": {"system": "phospho-Thr202/Tyr204-ERK1/2", "test": "Western blotting of phosphorylated ERK1/2 in primary cortical cultures", "assay_type": "cell-based", "settings": "primary cortical cultures from p11 KO mice, 10 μM, 15 minutes", "procedure": "Cortices are removed from E18 mice generated from WT×WT or p11KO×p11KO breedings, trypsinized (0.25%), dissociated by trituration and plated onto poly-L-lysine (1 mg/ml) coated six-well plates. The cultures (500,000 cells/ml) are grown in medium containing DMEM with 5% fetal bovine serum, 4 mM L-glutamine, B-27 nutrient supplement, penicillin (5 U/ml), and streptomycin (5 μg/ml). After two weeks, the cultures are treated with vehicle, serotonin (10 μM) or anpirtoline (10 μM) for 15 minutes. At the end of the treatment, the drug-containing medium is removed, the wells rinsed in ice-cold PBS, the neurons removed by a cell scraper and frozen in liquid nitrogen. Frozen cell samples are sonicated in 1% SDS and boiled for 10 min. Small aliquots of the homogenate are retained for protein determination by the bicinchoninic acid protein assay method. Equal amounts of protein are processed by using 10% acrylamide gels, as described (S10). Immunoblotting is carried out with a phosphorylation-state-specific antibody against phospho-Thr202/Tyr204-ERK1/2 or an antibody that is not phosphorylation-state-specific against total ERK1/2. Antibody binding is detected by enhanced chemiluminescence and quantified by densitometry, using National Institutes of Health IMAGE 1.63 software. The level of the phosphorylated form of ERK1/2 is normalized to its total level. All data are presented as normalized levels."}, "[4]": {"molecular_target": "T2, 5-HT1B receptor (Homo sapiens, UniProt P28222)", "T2 construct": "V5 (C); expressed in transfected cells; host or cells: COS 7", "T2 sequence (P28222 whole entry)": "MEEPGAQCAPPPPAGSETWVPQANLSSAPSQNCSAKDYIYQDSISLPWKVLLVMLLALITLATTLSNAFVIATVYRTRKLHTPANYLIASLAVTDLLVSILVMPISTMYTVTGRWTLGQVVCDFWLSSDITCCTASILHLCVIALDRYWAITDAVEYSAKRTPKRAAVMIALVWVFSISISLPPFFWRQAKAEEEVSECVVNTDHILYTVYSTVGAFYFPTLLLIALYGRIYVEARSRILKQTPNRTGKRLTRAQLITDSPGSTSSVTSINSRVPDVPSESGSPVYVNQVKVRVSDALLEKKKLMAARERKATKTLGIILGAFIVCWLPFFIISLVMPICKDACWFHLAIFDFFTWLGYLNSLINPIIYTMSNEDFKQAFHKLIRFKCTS", "test": "cAMP measurements in COS 7 cells", "assay_type": "cell-based", "procedure": "COS 7 cells grown in DMEM medium are transfected with 5-HT1B receptors and/or p11. Thirty six hours later the cells are pretreated with theophylline (5 mM) and pargyline (10 μM) for 15 min. Vehicle or forskolin (10 μM) with or without serotonin (10 μM), is then added for another 15 minutes. At the end of the treatment, the drug-containing medium is removed, the wells rinsed in PBS and the cells harvested. cAMP formation is quantitated by a direct cAMP enzyme immunoassay kit according to the manufacturers instructions."}, "[5]": {"molecular_target": "T1, 5-HT1B receptor", "test": "Electrophysiology, fEPSP/PS in nucleus accumbens slices, serotonin", "settings": "slices from WT mice; serotonin 50 μM in the presence of 10 μM fluoxetine", "procedure": "(§1) Male p11 KO and wild-type mice (4-7 weeks old) are decapitated under fluorothane anesthesia. Their brains are rapidly removed and coronal brain slices (400 μm thick), containing the nucleus accumbens, are prepared with a microslicer. Slices are incubated, for at least 1 h, at 32° C. in oxygenated (95% O2+5% CO2) artificial cerebrospinal fluid (aCSF) containing (in mM): 126 NaCl, 2.5 KCl, 1.2 NaH2PO4, 1.3 MgCl2, 2.4 CaCl2, 10 glucose and 26 NaHCO3, pH 7.4. Slices are transferred to a recording chamber mounted on an upright microscope and are continuously perfused with oxygenated aCSF at 28° C. Extracellular field potentials are recorded using a glass micropipette filled with aCSF positioned on the slice surface in the nucleus accumbens. Signals are amplified 500 times via an Axopatch 200B amplifier acquired at 10 kHz, filtered at 2 kHz and recorded on a Computer using acquisition and pClamp9 data analysis software. Synaptic responses are evoked with a concentric bipolar stimulating electrode placed near the recording electrode on the surface of the slice. […] Single stimuli (0.1 ms duration) are applied every 15 sec at an intensity yielding 50-70% maximal response as assessed by a stimulus/response curve established for each slice examined by measuring the amplitude of the field potential evoked by increasing stimulus intensities. […] Numerical values are expressed as means […]SEM. […]"}, "[6]": {"system": "immobility", "test": "Tail suspension test", "assay_type": "in vivo", "settings": "p11 KO mice compared with wild-type mice after acute treatment, 15 minutes postinjection", "procedure": "The tail suspension test, a model of antidepressant-like activity, is carried out as described (S11) and is a modified version of that validated for C57B16 (S12) and NMRI mice (S13). Mice are individually suspended by the tail to a horizontal bar (distance from floor is 35 cm) using adhesive tape (distance from tip of tail is 2 cm). […] A 6-min test session is videotaped and scored by an observer who is unaware of the genotype. The parameter recorded is the number of seconds spent immobile. In experiments with anpirtoline (5 mg/kg) and imipramine (10 mg/kg), animals are tested 15 minutes postinjection."}, "[7]": {"system": "phospho-Ser9-synapsin I", "test": "Western blotting of phosphorylated synapsin I in brain slices", "assay_type": "cell-based", "settings": "striatal slices from p11 KO mice, 50 μM, 2 min", "procedure": "Slices (300 μm) from the striatum are prepared from wild-type and p11 KO mice as described (S10). The slices are preincubated in Krebs buffer (118 mM NaCl/4.7 mM KCl/1.5 mM […]/1.2 mM KH2PO4/25 mM NaHCO3/11.7 mM glucose/1.3 mM CaCl2) at 30° C. under constant oxygenation (95% O2/5% CO2) for 60 min, with a change of buffer after […]. Slices are treated with vehicle or anpirtoline (50 μM) for 2 min. After drug treatment, the buffer is removed, the slices are rapidly frozen on dry ice, sonicated in 1% SDS and boiled for 10 min. Small aliquots of the homogenate are retained for protein determination by the bicinchoninic acid protein assay method. Equal amounts of protein are processed by using 10% acrylamide gels. Immunoblotting is carried out with a phosphorylation-state-specific rabbit polyclonal antibody against phospho-Ser9-synapsin I, a site that is phosphorylated by PKA and CamKII, or a rabbit polyclonal synapsin antibody that is not phosphorylation-state-specific. Antibody binding is detected by enhanced chemiluminescence and quantified by densitometry, using National Institutes of Health IMAGE 1.63 software. The level of the phosphorylated form of synapsin is normalized to its total level. All data are presented as normalized levels."}, "[8]": {"system": "thigmotaxis", "test": "Open-field analysis (thigmotaxis)", "assay_type": "in vivo", "settings": "wild-type mice treated long-term with imipramine; anpirtoline 5 mg/kg i.p., 15 min postinjection", "procedure": "Horizontal activities are measured for 30 minutes (results are analyzed every 5 min period) during daytime in a fully computerized, multicage, red and infrared-sensitive motion detection system. The peripheral activity values are divided […] by the total horizontal activity values to determine thigmotaxis. In experiments with anpirtoline (5 mg/kg, i.p.) animals are tested 15 min postinjection. Some anpirtolinetreated mice had received daily injections with imipramine (10 mg/kg, i.p.) for 4 weeks until the day before the experiment."}, "[9]": {"molecular_target": "T1, 5-HT1B receptor", "test": "[35S]GTPγS binding in response to 5-HT1B receptor stimulation", "assay_type": "biochemical", "parameters": "Cryostat sections (12 μm thick) are made from p11 KO and wild-type mice; from tissue; host or cells: mouse brain cryostat sections (globus pallidus, substantia nigra); wild-type, p11 KO and p11 transgenic mice", "settings": "p11 KO mice, 50 μM agonist", "procedure": "(§2) Fresh cryostat sections (12 μm) from wild-type, p11 KO and p11 transgenic mice are preincubated for 30 min in Tris-HCl 50 mM (pH 7.4) supplemented with 100 mM NaCl, […] 3 mM MgCl2, 0.2 mM EGTA, 2 mM GDP and 1 U/ml adenosine deaminase to remove endogenous adenosine. The sections are thereafter incubated for two hours at 25° C. in the same solution containing 40 pM [^35S]GTP S, with (stimulation condition) or without (basal condition) 50 μM of the 5-HT1A receptor agonist, 8-OH-DPAT, or the 5-HT1B receptor agonist, anpirtoline. Non-specific labeling (background) is determined on autoradiographs from adjacent sections incubated with 10 μM of unlabeled GTP S. Sections are rinsed twice (3 min each) in 50 mM Tris-HCl buffer, once (30 sec) in distilled water to remove the buffer salts, and air-dried. The autoradiographs are obtained by 2-4 days exposure on Biomax MR film. Optical density measurements are obtained in several brain regions with the NIH Image 1.63 image analysis system."}, "[10]": {"system": "p11 mRNA", "settings": "mice, 14 day treatment, once daily i.p., killed 1 hour after last injection", "protocol": "For some experiments, brains from p11 KO mice and their wild-type counterparts are used. […] Animals are killed 1 hour after the last injection.\nIn situ hybridization probes are made by PCR amplification of nucleotides 1159-1420 of the coding sequence of the rat 5-HT1B receptor gene, nucleotides 1-293 of the coding sequence of the mouse or human p11 genes and nucleotides 1-287 of the coding sequence of the rat p11 gene, respectively. The different PCR fragments are subcloned into the pCRII-TOPO vector. With the exception of the studies on human tissue, 12-μm-thick cryostat sections are made for all studies. Sections are hybridized with [□^−35S]UTP-labeled riboprobe repared by in vitro transcription from cDNA corresponding to the rat 5-HT1B receptor gene or mouse, rat or human p11 gene as previously described (S5). After hybridization, the sections are exposed to Biomax MR film for 7 to 24 days and analyzed using the NIH Image 1.63 software. Unless indicated, analyses are made in the prelimbic/anterior cingulate cortex. Some sections are dipped into Ilford K5 emulsion for cellular analysis. After 8 weeks, the sections are developed, Nissl-stained and mounted."}, "[11]": {"system": "AMPA receptors", "test": "Electrophysiology, fEPSP/PS in nucleus accumbens slices, CNQX", "parameters": "species or system mice", "settings": "15 min after CNQX", "procedure": "as §1"}, "[12]": {"molecular_target": "T3, 5-HT1A receptor (Mus musculus, UniProt Q64264)", "T3 construct": "Fresh cryostat sections (12 μm) from wild-type, p11 KO and p11 transgenic mice; from tissue; host or cells: mouse brain cryostat sections", "T3 sequence (Q64264 1-421)": "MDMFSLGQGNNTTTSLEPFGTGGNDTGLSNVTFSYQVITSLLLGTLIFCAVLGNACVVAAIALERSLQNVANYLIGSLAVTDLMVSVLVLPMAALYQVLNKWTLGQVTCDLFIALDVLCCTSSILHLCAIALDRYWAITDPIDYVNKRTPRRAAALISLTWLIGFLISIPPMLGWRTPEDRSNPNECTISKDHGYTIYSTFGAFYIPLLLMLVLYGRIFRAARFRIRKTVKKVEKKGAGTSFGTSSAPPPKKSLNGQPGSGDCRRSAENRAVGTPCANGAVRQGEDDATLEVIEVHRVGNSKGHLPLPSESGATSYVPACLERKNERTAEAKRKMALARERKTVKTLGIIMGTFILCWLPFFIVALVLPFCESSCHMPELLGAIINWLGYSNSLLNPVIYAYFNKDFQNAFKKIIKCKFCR", "test": "[35S]GTPγS binding in response to 5-HT1A receptor stimulation", "assay_type": "biochemical, mice", "settings": "50 μM agonist", "procedure": "as §2"}}, "note": "Read-outs that look alike come from different tables or passages of the source.", "data": [{"smiles": "CC(C)(C)NCC(O)COc1cccc2[nH]c(C#N)c([125I])c12", "note": "(centres unmarked) [[^125I]iodocyanopindolol]", "values": [{"measurement": "binding in substantia nigra pars reticulata", "setting": "[1]; p11 KO mice", "value": "77.3±5.8", "unit": "fmol/mg protein"}, {"measurement": "binding in substantia nigra pars reticulata", "setting": "[1]; wild-type mice", "value": "98.8±6.2", "unit": "fmol/mg protein"}]}, {"smiles": "CNCCC(Oc1ccc(C(F)(F)F)cc1)c1ccccc1", "note": "(centres unmarked) [fluoxetine]", "values": [{"measurement": "increase in p11 expression in peripheral blood mononuclear cells (PBMC)", "setting": "[2]", "value": "more than twofold"}]}, {"smiles": "NCCc1c[nH]c2ccc(O)cc12", "note": "[serotonin, 5-hydroxy-tryptamine]", "values": [{"measurement": "down-regulation of phospho-Thr202/Tyr204-ERK1/2 levels", "setting": "[3]", "value": "loss of ability"}, {"measurement": "ability to counteract forskolin-induced cAMP formation", "setting": "[4]; COS-7 cells transfected with the 5-HT1B receptor, in the presence of cotransfected p11, serotonin (10 µM)", "value": "increased"}, {"measurement": "cAMP formation in untransfected COS 7 cells", "setting": "[4]; control experiments, untransfected cells", "value": "does not alter cAMP formation"}, {"measurement": "amplitude of the fEPSP/PS", "setting": "[5]", "value": "depresses the amplitude"}, {"measurement": "EC50", "setting": "[1]", "value": 52, "unit": "nM"}, {"measurement": "EC50", "setting": "[1]; median effective concentration (EC50) to displace bound [125I]iodocyanopindolol, wild-type mice, brain sections", "value": 57, "unit": "nM"}]}, {"smiles": "Clc1cccc(SC2CCNCC2)n1", "note": "[anpirtoline]", "values": [{"measurement": "down-regulation of phospho-Thr202/Tyr204-ERK1/2 levels", "setting": "[3]", "value": "loss of ability"}, {"measurement": "immobility in the tail suspension test", "setting": "[6]", "value": "increased immobility"}, {"measurement": "decrease of phospho-Ser9-synapsin I", "setting": "[7]", "value": "loss of ability"}, {"measurement": "thigmotaxis", "setting": "[8]", "value": "significant reduction in thigmotaxis"}, {"measurement": "ability to increase [35S]GTP-S binding in globus pallidus", "setting": "[9]", "value": "reduced ability"}]}, {"smiles": "O=C(CCCN1CCC(O)(c2ccc(Cl)cc2)CC1)c1ccc(F)cc1", "note": "[haloperidol]", "values": [{"measurement": "p11 mRNA in the forebrain", "setting": "[10]", "value": "not"}]}, {"smiles": "Cc1nc2n(c(=O)c1CCN1CCC(c3noc4cc(F)ccc34)CC1)CCCC2", "note": "[risperidone]", "values": [{"measurement": "p11 mRNA in the forebrain", "setting": "[10]", "value": "not"}]}, {"smiles": "N#Cc1cc2c(cc1[N+](=O)[O-])=NC(=O)C(=O)N=2", "note": "[CNQX, 6-cyano-7-nitroquinoxaline-2,3-dione]", "values": [{"measurement": "f EPSP/population spike (PS) reduction compared with baseline", "setting": "[11]; p11 KO mice", "value": 81, "unit": "%"}, {"measurement": "f EPSP/population spike (PS) reduction compared with baseline", "setting": "[11]; wild-type mice", "value": 77, "unit": "%"}]}, {"smiles": "CN(C)CCCN1c2ccccc2CCc2ccccc21", "note": "[imipramine]", "values": [{"measurement": "p11 mRNA in the forebrain", "setting": "[10]", "value": "upregulation of p11 mRNA"}, {"measurement": "immobility in the tail suspension test", "setting": "[6]", "value": "increased immobility"}]}, {"smiles": "N[C@@H]1C[C@H]1c1ccccc1", "note": "(racemic) [tranylcypromine]", "values": [{"measurement": "p11 mRNA in the forebrain", "setting": "[10]", "value": "upregulation of p11 mRNA"}]}, {"smiles": "CCCN(CCC)C1CCc2cccc(O)c2C1", "note": "(racemic) [8-OH-DPAT, (+/−)-8-hydroxy-2-(di-n-propylamino)tetralin]", "values": [{"measurement": "[35S]GTP-S binding", "setting": "[12]; p11 KO mice", "value": "5.0±2.0", "unit": "optical density units"}, {"measurement": "[35S]GTP-S binding", "setting": "[12]; wild-type mice", "value": "6.0±2.1", "unit": "optical density units"}]}]}
